Measurements: article PMC8881610 (Nature Communications, 2022)
Positions count from the first letter of the chain named.

Assays:
Assay in all cases: cAMP accumulation assay (LANCE Ultra cAMP kit), GIPR WT, mutant or modified constructs
Type in all cases: cell-based
Parameters in all cases: acylated tirzepatide to the full-length or modified; Flag; expressed in transfected cells; host or cells: HEK293T
GIPR [1] = target: T1, GIPR (Homo sapiens, UniProt P48546, Q285A); settings: GIPR Q285A, HEK293T
T1 sequence (P48546 22-466 Q285A): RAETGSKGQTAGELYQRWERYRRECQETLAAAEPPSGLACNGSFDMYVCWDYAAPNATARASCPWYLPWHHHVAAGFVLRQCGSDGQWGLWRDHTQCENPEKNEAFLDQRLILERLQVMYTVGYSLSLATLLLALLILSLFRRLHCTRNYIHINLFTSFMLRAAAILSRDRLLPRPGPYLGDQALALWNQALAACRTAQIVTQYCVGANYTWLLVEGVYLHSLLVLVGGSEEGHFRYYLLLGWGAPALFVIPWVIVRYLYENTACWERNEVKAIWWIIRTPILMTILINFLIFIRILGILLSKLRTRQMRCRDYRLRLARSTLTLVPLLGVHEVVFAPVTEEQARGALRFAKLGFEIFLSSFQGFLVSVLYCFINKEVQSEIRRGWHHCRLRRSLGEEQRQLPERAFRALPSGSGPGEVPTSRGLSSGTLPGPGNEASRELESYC
In short: (§1)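 HEK293T cells transiently transfected with human GIPR WT or mutant constructs (pcDNA3.1), used after 24 h. The cells were stimulated with peptide agonists for 40 min at RT in HBSS with 5 mM HEPES, 0.1% BSA or casein, and 0.5 mM IBMX. cAMP was read by LANCE Ultra TR-FRET (Eu-cAMP tracer/ULight anti-cAMP, 1 h RT, 620/650 nm).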

GIPR [2] = target: T2, GIPR (Homo sapiens, UniProt P48546, R370A); settings: HEK-293T, GIPR R370A; HEK293T
T2 sequence (P48546 22-466 R370A): T1 sequence (P48546 22-466 Q285A) with A264Q, R349A
In short: as §1

GIPR [3] = target: T3, GIPR (Homo sapiens, UniProt P48546, R196A); settings: GIPR R196A, HEK293T
T3 sequence (P48546 22-466 R196A): T1 sequence (P48546 22-466 Q285A) with R175A, A264Q
In short: as §1

[4] = read-out: cAMP pEC50 (converted)

`CCCCCCCCCCCCCCCC(=O)N[C@@H](CCC(=O)NCCCC[C@H](NC(=O)[C@H](CC(=O)O)NC(=O)[C@H](CO)NC(=O)[C@@H](NC(=O)[C@H](Cc1ccccc1)NC(=O)[C@@H](NC(=O)CNC(=O)[C@H](CCC(N)=O)NC(=O)C(C)(C)NC(=O)[C@@H](N)Cc1c[nH]cn1)[C@@H](C)O)[C@@H](C)O)C(=O)N[C@@H](CO)C(=O)N[C@@H](CCCCN)C(=O)N[C@@H](Cc1ccc(O)cc1)C(=O)N[C@@H](CC(C)C)C(=O)N[C@@H](CC(=O)O)C(=O)N[C@@H](CCC(=O)O)C(=O)N[C@@H](CCCNC(=N)N)C(=O)N[C@@H](C)C(=O)N[C@@H](C)C(=O)N[C@@H](CCC(N)=O)C(=O)N[C@@H](CC(=O)O)C(=O)N[C@@H](Cc1ccccc1)C(=O)N[C@H](C(=O)N[C@@H](CCC(N)=O)C(=O)N[C@@H](Cc1c[nH]c2ccccc12)C(=O)N[C@@H](CC(C)C)C(=O)N[C@@H](CC(C)C)C(=O)N[C@@H](CC(=O)O)C(=O)NCC(=O)NCC(=O)N1CCC[C@H]1C(=O)N[C@@H](CO)C(=O)N[C@@H](CO)C(=O)NCC(=O)N[C@@H](C)C(=O)N1CCC[C@H]1C(=O)N1CCC[C@H]1C(=O)N1CCC[C@H]1C(=O)N[C@@H](CO)C(N)=O)C(C)C)C(=O)O` [Peptide 20] showed an EC50 (GIPR [1]; [4]) of 0.0417 nM, an Emax (GIPR [1]; HEK-293T) of 97.6 ± 1.37% and an Emax (GIPR [2]) of 71.5 ± 2.85%. The EC50 (GIPR [3]; [4]) was 0.0468 nM and the Emax (GIPR [3]; HEK-293T) was 98.5 ± 1.43%.
